The values that follow come from patent US20120122969A1, “TREATMENT OF PERVASIVE DEVELOPMENTAL DISORDERS WITH TOCOTRIENOLS OR TOCOTRIENOL ENRICHED EXTRACTS” (AMPERE LIFE SCIENCES, INC., priority 2009, published 2012).

The test has as its system Human Dermal Fibroblasts from Autistic Patients. The test can be described thus: Rescue of ASD fibroblasts stressed by addition of L-buthionine-(S,R)-sulfoximine (BSO), Calcein AM viability readout. The test is classed as cell-based. As to conditions: 1 mM BSO, 48 hours, Calcein AM fluorescence, viability relative to non-BSO treated fibroblasts (100%); read-out: EC50 of protection against ASD (rescue of BSO-stressed ASD fibroblasts). As for the experimental part: A screen was performed to identify compounds effective for the amelioration of ASD. Test samples, and solvent controls were tested for their ability to rescue ASD fibroblasts stressed by addition of L-buthionine-(S,R)-sulfoximine (BSO).
MEM (a medium enriched in amino acids and vitamins, catalog no. Gibco 11965) and Fetal Calf Serum were obtained from Invitrogen. Basic fibroblast growth factor and epidermal growth factor were purchased from PeproTech. Penicillin-streptomycin-glutamine mix, L-buthionine (S,R)-sulfoximine, and insulin from bovine pancreas were purchased from Sigma. Calcein AM was purchased from Molecular Probes. Cell culture medium (ATP) was made by combining 75 ml Fetal Calf Serum, 100 U/ml penicillin, 100 μg/ml streptomycin, 2 mM glutamine, 10 ng/ml EGF, and 10 ng/ml bFGF; MEM EBS was added to make the volume up to 500 ml. A 10 mM BSO solution was prepared by dissolving 444 mg BSO in 200 ml of medium with subsequent filter-sterilization. […]
100 μl of PBS containing 1.2 μM Calcein AM were then added to each well. […] After that time the PBS was discarded, the plate gently tapped on a paper towel and fluorescence (excitation/emission wavelengths of 485 nm and 525 nm, respectively) was read on a Gemini fluorescence reader. […]
The viability of non-BSO treated fibroblasts was set as 100%, and the viability of the BSO- and compound-treated cells was calculated as relative to this value.

As usually defined, the EC50 is the midpoint of the concentration-response curve.

Take alpha-tocotrienol: the EC50 was less than 50 nM.
